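Test compounds were applied to cells in 96-well plates for 48 hours at 5 doses. TGI denotes the concentration required for complete inhibition of growth.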 Bounds are passed on as bounds.

Among the test systems are NCI-H522 lung; HOP-92 NSCLC; 786-0 renal; SR leukemia; ACHN renal; MALME-3M melanoma; COLO 205 colon; HCT-15 colon; NCI-H226 lung; BT-549 breast; NCI-H23 lung; U251 CNS; KM12 colon; PC-3 prostate.
Common to all, as to experiment: growth of human tumour cells (NCI), 48 h

For the compound `CCN(CC)C(=S)SS(=O)(=O)c1ccc(F)cc1`, the TGI was 0.505 µM in the test on NCI-H522 lung; greater than 100 µM in the test on HOP-92 NSCLC; greater than 100 µM with 786-0 renal; 57.5 µM in the test with SR leukemia; greater than 100 µM in the test with ACHN renal; 68.4 µM with MALME-3M melanoma. Moreover, the TGI in the test on COLO 205 colon is greater than 100 µM; with HCT-15 colon, greater than 100 µM; with NCI-H226 lung it was greater than 100 µM; in the test on BT-549 breast, greater than 100 µM; with NCI-H23 lung, greater than 100 µM; in the test with U251 CNS it was 73.4 µM. Further, in the test on KM12 colon, the TGI is greater than 100 µM.

Take `CN(CCN(C)C(=S)NN)C(=S)NN`: the TGI in the test on NCI-H522 lung, in the test with 786-0 renal, with SR leukemia, with ACHN renal, in the test on MALME-3M melanoma and in the test on PC-3 prostate was greater than 100 µM in each case. The TGI in the test on COLO 205 colon, with BT-549 breast, in the test on NCI-H23 lung, in the test on U251 CNS and in the test with KM12 colon was greater than 100 µM throughout.

With `Cn1c(N)c2c3c(sc2nc1=O)CCCC3`, the TGI with NCI-H522 lung, in the test on 786-0 renal, in the test on SR leukemia, with ACHN renal, with MALME-3M melanoma and in the test on PC-3 prostate was greater than 75 µM in each case. The TGI with COLO 205 colon, in the test on HCT-15 colon, in the test with NCI-H226 lung, with BT-549 breast, with NCI-H23 lung and in the test on U251 CNS was greater than 75 µM each time. In addition, in the test on KM12 colon, the TGI was greater than 75 µM.

`CC(/C=N\NC(=S)N1CCCCC1)=N/NC(=S)N1CCCCC1`: the TGI with NCI-H522 lung was found to be 5.68 µM; in the test with HOP-92 NSCLC, 7.48 µM; in the test on 786-0 renal it was 13.2 µM; in the test with ACHN renal, 7.16 µM; with MALME-3M melanoma, 14.9 µM; in the test on PC-3 prostate, 11.9 µM. The TGI in the test with COLO 205 colon was 5.85 µM; in the test with HCT-15 colon it was 19.5 µM; with NCI-H226 lung, 2.6 µM; in the test on BT-549 breast, 13.4 µM; with NCI-H23 lung, 19.2 µM; with U251 CNS, 13 µM. In the test with KM12 colon, this compound had a TGI of 13.7 µM.

On to `CCCCn1c(C)c2c(c1C)C(=O)N(CC(O)CN1CCc3ccccc3C1)C2=O` (stereo unspecified), for which the TGI with NCI-H522 lung, in the test with HOP-92 NSCLC, with 786-0 renal, in the test on ACHN renal, in the test on MALME-3M melanoma and with PC-3 prostate was greater than 100 µM each time. In addition, the TGI with COLO 205 colon, in the test on HCT-15 colon, with NCI-H226 lung, in the test with BT-549 breast, in the test with NCI-H23 lung and in the test with U251 CNS was greater than 100 µM each time. The TGI in the test on KM12 colon is greater than 100 µM.

As to `O=C1C[C@H]2[C@@H](O1)[C@@H](O)CN1C(=O)c3ccccc3[C@H]21`, the TGI with NCI-H522 lung, with 786-0 renal, in the test on SR leukemia, in the test with ACHN renal, in the test with MALME-3M melanoma and in the test with PC-3 prostate was greater than 100 µM throughout. Moreover, the TGI in the test with COLO 205 colon, with HCT-15 colon, in the test on NCI-H226 lung, in the test on BT-549 breast, with NCI-H23 lung and in the test on U251 CNS was greater than 100 µM each time. In addition, the TGI with KM12 colon was greater than 100 µM.

In the case of `CC[C@]1(Cc2ccc(OC)c(OC)c2)[C@@H]2C[C@@H](C3OCCO3)ON2O[C@H](OC2CCCC2(c2ccccc2)c2ccccc2)[C@@H]1OC(C)=O` (stereo partly specified), the TGI with NCI-H522 lung stood at 29.7 µM; in the test on 786-0 renal, 41.1 µM; in the test with SR leukemia, 45.5 µM; with ACHN renal it was 33.5 µM; in the test on PC-3 prostate it was 63.8 µM; in the test with COLO 205 colon, 69.3 µM. Also, the TGI in the test with HCT-15 colon was 30.3 µM; in the test with NCI-H226 lung, 36.5 µM; in the test on BT-549 breast it was 55.9 µM; with NCI-H23 lung it was 43.4 µM; with U251 CNS, greater than 100 µM; with KM12 colon, 29.5 µM.

Consider `O=C(NC(CO)Cc1ccc(Oc2cc(CC(CO)NC(=O)OCc3ccccc3)ccc2OC(=O)OCc2ccccc2)cc1)OCc1ccccc1` (stereo unspecified), for which the TGI was 54.3 µM in the test with HOP-92 NSCLC; greater than 100 µM in the test with 786-0 renal; 60.8 µM in the test with SR leukemia; 62.7 µM in the test on ACHN renal; 31.5 µM in the test on MALME-3M melanoma; 32.7 µM with PC-3 prostate. The TGI is 36 µM with COLO 205 colon; greater than 100 µM in the test on HCT-15 colon; 40.7 µM in the test on NCI-H226 lung; 38.7 µM in the test on BT-549 breast; 36.1 µM with NCI-H23 lung; 50.4 µM with KM12 colon.

For `CC(NNC(=O)CC(=O)N(C(=O)c1ccccc1)c1ccc(Cl)cc1)c1cc2ccccc2oc1=O` (stereo unspecified), the TGI with NCI-H522 lung, in the test with HOP-92 NSCLC, in the test on 786-0 renal, in the test with ACHN renal, in the test with MALME-3M melanoma and in the test with PC-3 prostate was greater than 10 µM each time. For the same compound, the TGI in the test with COLO 205 colon, in the test with HCT-15 colon, with NCI-H226 lung, with BT-549 breast, in the test on NCI-H23 lung and in the test with U251 CNS was greater than 10 µM in each case. The compound further returned a TGI with KM12 colon greater than 10 µM.

In the case of `CCOC(=O)c1ccc(C(=O)/C(C#N)=C2\CCCN2C)[nH]1`, the TGI with NCI-H522 lung, in the test on 786-0 renal, with SR leukemia, in the test on ACHN renal, in the test with MALME-3M melanoma and with PC-3 prostate was greater than 100 µM each time. Also, the TGI in the test with COLO 205 colon, with HCT-15 colon, with NCI-H226 lung, in the test on BT-549 breast, in the test with NCI-H23 lung and in the test with U251 CNS was greater than 100 µM throughout. The compound also displayed a TGI in the test on KM12 colon greater than 100 µM.

Source of the values: PubChem BioAssay (NCI).
